# Experimental data taken from publication PMC9831672 (Journal of the American Chemical Society, 2022).
# Molecular target: NotF (Aspergillus sp. MF297-2, UniProt E0Y3X1)
# Format: binding
# Settings: ternary complex with brevianamide F; non-hydrolysable DMAPP analogue
# Sequence of NotF (E0Y3X1 whole entry): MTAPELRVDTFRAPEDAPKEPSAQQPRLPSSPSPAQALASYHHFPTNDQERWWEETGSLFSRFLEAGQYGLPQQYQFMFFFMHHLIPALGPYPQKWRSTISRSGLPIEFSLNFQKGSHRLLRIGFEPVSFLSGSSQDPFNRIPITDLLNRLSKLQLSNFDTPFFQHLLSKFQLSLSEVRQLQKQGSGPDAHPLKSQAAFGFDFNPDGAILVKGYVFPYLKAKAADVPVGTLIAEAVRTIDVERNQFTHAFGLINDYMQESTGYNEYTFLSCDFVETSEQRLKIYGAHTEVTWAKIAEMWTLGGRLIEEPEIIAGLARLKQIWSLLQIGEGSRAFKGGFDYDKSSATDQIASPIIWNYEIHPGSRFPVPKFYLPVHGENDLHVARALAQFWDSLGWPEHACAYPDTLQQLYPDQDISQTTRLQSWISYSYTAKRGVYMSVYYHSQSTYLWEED
smiles,measurement,value
CC(C)=CCSP(=O)(O)OP(=O)(O)O [dimethylallyl S-thiolodiphosphate],"X-ray crystal structure (3.0 A), co-crystallisation","a non-hydrolysable DMAPP analog, dimethylallyl S-thiolodiphosphate (DMSPP), was determined"
